Columns and labels:
Full-length human MNK1 = molecular target: T1, Full-length human MNK1 (Homo sapiens, UniProt Q9BUB5, T385D); test: MNK1 biochemical IC50 assay (Caliper Mobility Shift Assay); settings: read-out: P(IC50) MNK1 (converted)
T1 construct: GST (N); purchased Carna Biosciences 02-145; host or cells: baculovirus expression system

Full-length human MNK2 = molecular target: T2, Full-length human MNK2 (Homo sapiens, UniProt Q9HBH9, T379D); test: MNK2 biochemical IC50 assay (Caliper Mobility Shift Assay); settings: read-out: P(IC50) MNK2 (converted)
T2 construct: GST (N); purchased Carna Biosciences 02-146; host or cells: baculovirus expression system
T2 sequence (Q9HBH9 whole entry T379D): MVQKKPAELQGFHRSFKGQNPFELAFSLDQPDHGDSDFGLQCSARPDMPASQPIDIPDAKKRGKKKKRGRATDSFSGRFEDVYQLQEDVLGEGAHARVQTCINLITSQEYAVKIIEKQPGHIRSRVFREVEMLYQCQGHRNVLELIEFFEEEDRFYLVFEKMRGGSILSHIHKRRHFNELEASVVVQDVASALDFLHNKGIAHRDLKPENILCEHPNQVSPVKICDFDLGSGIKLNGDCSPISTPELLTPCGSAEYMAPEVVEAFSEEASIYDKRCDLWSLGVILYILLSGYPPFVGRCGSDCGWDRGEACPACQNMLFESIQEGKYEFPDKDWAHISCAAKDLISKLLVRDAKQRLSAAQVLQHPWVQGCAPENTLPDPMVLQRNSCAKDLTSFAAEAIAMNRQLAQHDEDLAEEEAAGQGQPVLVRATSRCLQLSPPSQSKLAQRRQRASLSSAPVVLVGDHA

[1] = system: phosphorylation of eIF4E at ser209 in MV4.11 cell line; test: MNK cellular activity phospho-eIF4E detection assay (Alphascreen Surefire); assay type: cell-based; settings: Homo sapiens; MV4.11 cell line, phospho-eIF4E (ser209) Alphascreen Surefire; read-out: P(IC50) elF4E (converted)
In short: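 AlphaScreen SureFire sandwich-immunoassay readout of phospho-eIF4E Ser209 in lysed MV4.11 cells; acceptor then donor beads, each 1.5 hr at room temperature. Signal normalised to untreated DMSO-only controls; duplicate curves, values averaged over at least 2 independent experiments.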

T1 sequence (Q9BUB5 1-424 isoform Q9BUB5-2 T344D): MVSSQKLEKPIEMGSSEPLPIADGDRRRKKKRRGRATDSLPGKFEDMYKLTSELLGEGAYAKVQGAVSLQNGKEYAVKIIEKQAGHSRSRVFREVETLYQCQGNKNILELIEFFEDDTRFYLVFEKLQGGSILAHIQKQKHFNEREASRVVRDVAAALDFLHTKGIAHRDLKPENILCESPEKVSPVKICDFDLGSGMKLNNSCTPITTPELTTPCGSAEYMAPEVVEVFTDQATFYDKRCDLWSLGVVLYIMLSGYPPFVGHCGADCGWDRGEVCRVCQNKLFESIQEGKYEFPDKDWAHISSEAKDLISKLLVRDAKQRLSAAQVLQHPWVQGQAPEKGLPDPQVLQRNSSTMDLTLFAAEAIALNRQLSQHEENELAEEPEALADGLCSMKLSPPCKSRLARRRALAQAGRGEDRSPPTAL

| Structure (SMILES) | IC50 (Full-length human MNK1) [nM] | IC50 (Full-length human MNK2) [nM] | IC50 [1] [nM] |
| --- | --- | --- | --- |
| CC(C)Oc1cc(F)ccc1Nc1ncnc2sc(C(=O)N3CCC(CCO)CC3)nc12 [Example 11, [7-(4-fluoro-2-isopropoxy-anilino)thiazolo[5,4-d]pyrimidin-2-yl]-[4-(2 hydroxyethyl)-1-piperidyl]methanone] | 398 | 316 | 316 |
| CNCCCNC(=O)c1nc2c(N3CCc4ccccc43)ncnc2s1 [Example 97, 7-indolin-1-yl-N-[3-(methylamino)propyl] thiazolo[5,4-d]pyrimidine-2-carboxamide] | 7.94 | 7.94 | 15.8 |
| O=C(NCC1CCNCC1)c1nc2c(N3c4ccccc4C[C@H]3CO)ncnc2s1 [Example 137] | 200 | 126 | 158 |
| CC1CN(c2ncnc3sc(C(=O)NC4CCN(C)CC4)nc23)c2ccccc21 (stereo not drawn) [Example 126, 7-(3-Methylindolin-1-yl)-N-(1-methyl-4-piperidyl)thiazolo[5,4-d]pyrimidine-2-carboxamide] | 3.98 | 6.31 | 3.98 |
| O=C(NC1CCOCC1)c1nc2c(N3CCc4cc(Cl)cc(F)c43)ncnc2s1 [Example 91, 7-(5-Chloro-7-fluoro-indolin-1-yl)-N-tetrahydropyran-4-yl-thiazolo[5,4-d]pyrimidine-2-carboxamide] | 63.1 | 50.1 | 100 |
| O=C(NC1CCOCC1)c1nc2c(N3CC(CCN4CCOCC4)c4ccccc43)ncnc2s1 (stereo not drawn) [Example 154, 7-[3-(2-morpholinoethyl)indolin-1-yl]-N-tetrahydropyran-4-yl-thiazolo[5,4-d]pyrimidine-2-carboxamide] | 79.4 | 79.4 | 100 |
| CC1(C)CN(c2ncnc3sc(C(=O)NCCCO)nc23)c2ccccc21 [Example 163] | 10 | 3.98 | 5.01 |
| C[C@H]1Cc2ccccc2N1c1ncnc2sc(C(=O)NC3CCNCC3)nc12 [Example 132, 7-[(2S)-2-methylindolin-1-yl]-N-(4-piperidyl) thiazolo[5,4-d]pyrimidine-2-carboxamide] | 20 | 15.8 | 25.1 |
| CC(C)Oc1cc(F)ccc1Nc1ncnc2sc(C(=O)NCC3CCN(C)CC3)nc12 [Example 36, 7-{[4-fluoro-2-(propan-2-yloxy)phenyl]amino}-N-[(1-methylpiperidin-4-yl)methyl][1,3]thiazolo[5,4-d]pyrimidine-2-carboxamide] | 50.1 | 50.1 | 50.1 |
| O=C(NC1CCOCC1)c1nc2c(N3CC4(CCOCC4)c4ccccc43)ncnc2s1 [Example 108, 7-spiro[indoline-3,4′-tetrahydropyran]-1-yl-N-tetrahydropyran-4-yl-thiazolo[5,4-d]pyrimidine-2-carboxamide] | 63.1 | 39.8 | 31.6 |
| CNC(=O)c1nc2c(N3CCc4cc(C(F)(F)F)ccc43)ncnc2s1 [Example 158] | 316 | 126 | 501 |
| CC1Cc2ccccc2N1c1ncnc2sc(C(=O)NC3CCOCC3)nc12 (stereo not drawn) [Example 122, 7-(2-Methylindolin-1-yl)-N-tetrahydropyran-4-yl-thiazolo[5,4-d]pyrimidine-2-carboxamide] | 39.8 | 31.6 | 50.1 |
| CNC(=O)c1nc2c(N3CCc4cc(F)ccc43)ncnc2s1 [Example 69, 7-(5-fluoroindolin-1-yl)-N-methyl-thiazolo[5,4-d]pyrimidine-2-carboxamide] | 6.31 | 5.01 | 6.31 |
| O=C(NC1CCOCC1)c1nc2c(N3CCc4ccccc43)ncnc2s1 [Example 106, 7-Indolin-1-yl-N-tetrahydropyran-4-yl-thiazolo[5,4-d]pyrimidine-2-carboxamide] | 12.6 | 7.94 | 20 |
| CC1(CO)CN(c2ncnc3sc(C(=O)NCC4CCNCC4)nc23)c2ccc(F)cc21 (stereo not drawn) [Example 141] | 3.16 | 5.01 | 20 |
| CC(C)Oc1cc(F)ccc1Nc1ncnc2sc(CO)nc12 [Example 48, [7-(4-Fluoro-2-isopropoxy-anilino)thiazolo[5,4-d]pyrimidin-2-yl]methanol] | 63.1 | 39.8 | 20 |
| CC(C)Oc1cc(F)ccc1Nc1ncnc2sc(C(=O)NC3CC4CCC(C3)N4)nc12 (stereo not drawn) [Example 5, N-(8-azabicyclo[3.2.1]octan-3-yl)-7-(4-fluoro-2-isopropoxy-anilino)thiazolo[5,4-d]pyrimidine-2-carboxamide] | 158 | 79.4 | 100 |

| Structure (SMILES) | IC50 (Full-length human MNK1) [nM] | IC50 (Full-length human MNK2) [nM] | IC50 [1] [nM] |
| --- | --- | --- | --- |
| CC(C)Oc1ncccc1Nc1ncnc2sc(C(=O)NCC3CCNCC3)nc12 [Example 55, 7-[(2-Isopropoxy-3-pyridyl)amino]-N-(4-piperidylmethyl)thiazolo[5,4-d]pyrimidine-2-carboxamide] | 316 | 251 | 316 |
| O=C(NC1CC1)c1nc2c(N3CCc4ccccc43)ncnc2s1 [Example 99, N-cyclopropyl-7-indolin-1-yl-thiazolo[5,4-d]pyrimidine-2-carboxamide] | 12.6 | 5.01 | 15.8 |
| CCOc1cc(F)ccc1Nc1ncnc2sc(C(=O)NCCCN(C)C)nc12 [Example 24, N-[3-(Dimethylamino)propyl]-7-(2-ethoxy-4-fluoro-anilino)thiazolo[5,4-d]pyrimidine-2-carboxamide] | 100 | 100 | 79.4 |
| Nc1nc2c(N3CCc4cc(F)ccc43)ncnc2s1 [Example 83, 7-(5-Fluoroindolin-1-yl)thiazolo[5,4-d]pyrimidin-2-amine] | 31.6 | 39.8 | 126 |
| CN(C)Cc1cn(-c2ncnc3sc(C(=O)NC4CCOCC4)nc23)c2ccccc12 [Example 121, 7-[3-[(dimethylamino)methyl]indol-1-yl]-N-tetrahydropyran-4-yl-thiazolo[5,4-d]pyrimidine-2-carboxamide] | 39.8 | 79.4 | 79.4 |
| O=C(NCCN1CCCC1)c1nc2c(N3CCc4cc(F)ccc43)ncnc2s1 [Example 74, 7-(5-fluoroindolin-1-yl)-N-(2-pyrrolidin-1-ylethyl)thiazolo[5,4-d]pyrimidine-2-carboxamide] | 6.31 | 5.01 | 20 |
| O=C(NC1CCOCC1)c1nc2c(N3CC4(CC4)c4cc(F)ccc43)ncnc2s1 [Example 107, 7-(5′-fluorospiro[cyclopropane-1,3′-indoline]-1′-yl)-N-tetrahydropyran-4-yl-thiazolo[5,4-d]pyrimidine-2-carboxamide] | 1.58 | 3.16 | 2 |
| O=C(Nc1nc2c(N3CCc4cc(F)ccc43)ncnc2s1)C1CCOC1 (stereo not drawn) [Example 84, N-(7-(5-Fluoroindolin-1-yl)thiazolo[5,4-d]pyrimidin-2-yl)tetrahydrofuran-3-carboxamide] | 3.98 | 5.01 | 50.1 |
| CC1(C)CN(c2ncnc3sc(C(=O)NC4CCNCC4)nc23)c2ccccc21 [Example 162] | 6.31 | 5.01 | 7.94 |
| O=C(NCC1CCNCC1)c1nc2c(Nc3ccc(F)cc3O[C@H]3CCOC3)ncnc2s1 [Example 54, 7-[4-fluoro-2-[(3S)-tetrahydrofuran-3-yl]oxy-anilino]-N-(4-piperidylmethyl)thiazolo[5,4-d]pyrimidine-2-carboxamide] | 79.4 | 100 | 200 |
| O=C(NC1CCOCC1)c1nc2c(N3CC(CO)c4ccccc43)ncnc2s1 (stereo not drawn) [Example 109, 7-[3-(hydroxymethyl)indolin-1-yl]-N-tetrahydropyran-4-yl-thiazolo[5,4-d]pyrimidine-2-carboxamide] | 12.6 | 7.94 | 12.6 |
| CNCCNC(=O)c1nc2c(N3CCc4cc(F)ccc43)ncnc2s1 [Example 71, 7-(5-fluoroindolin-1-yl)-N-[2-(methylamino)ethyl]thiazolo[5,4-d]pyrimidine-2-carboxamide] | 10 | 6.31 | 15.8 |
| CN1CCN(C(=O)c2nc3c(N4CCc5ccccc54)ncnc3s2)CC1 [Example 96, (7-indolin-1-ylthiazolo[5,4-d]pyrimidin-2-yl)-(4-methylpiperazin-1-yl)methanone] | 398 | 251 | 501 |
| O=C(NC1CCOC1)c1nc2c(N3CCc4cc(F)ccc43)ncnc2s1 (stereo not drawn) [Example 77, 7-(5-fluoroindolin-1-yl)-N-tetrahydrofuran-3-yl-thiazolo[5,4-d]pyrimidine-2-carboxamide] | 2 | 2 | 3.98 |
| O=C(NCC1CCNCC1)c1nc2c(N3CCOc4cc(F)ccc43)ncnc2s1 [Example 56, 7-(7-fluoro-2,3-dihydro-1,4-benzoxazin-4-yl)-N-(4-piperidylmethyl)thiazolo[5,4-d]pyrimidine-2-carboxamide] | 1000 | 794 | 794 |
| CC(C)Oc1cc(F)ccc1Nc1ncnc2sc(C(=O)NCCN(C)C)nc12 [Example 39, N-[2-(dimethylamino)ethyl]-7-{[4-fluoro-2-(propan-2-yloxy)phenyl]amino}[1,3]thiazolo[5,4-d]pyrimidine-2-carboxamide] | 158 | 126 | 63.1 |

Reference: patent US10669284B2, “Fused thiazolopyrimidine derivatives as MNKS inhibitors” (LIFEARC, priority 2015, dated 2020)
